For this assay, the target named is hNOX1 (Homo sapiens (Human), UniProt Q9Y5S8). Put plainly: ROS production measurement on hNOX1 membranes (Amplex Red fluorescence assay, assay 1). It counts as biochemical. Conditions: assay 1: membranes from CHO cells overexpressing hNox1, Amplex Red/HRP fluorescence, NADPH 30 μM; non linear regression (GraphPad Prism); read-out: Nox1 inhibitory constant Ki. The protocol: Reactive oxygen species (ROS) production generated by hNOX1 enzyme was measured by fluorescence in both cellular and membrane-based assays using the Amplex® Red reagent. In the presence of horseradish peroxidase (HRP), the Amplex® Red reagent (10-acetyl-3,7-dihydroxyphenoxazine, AR), which is a colorless and nonfluorescent derivative of dihydroresorufin, reacts with H2O2 with a 1:1 stoichiometry to produce highly fluorescent resorufin at an excitation and emission wavelengths of 544 nm and 590 nm, respectively.
Sequence of hNOX1 (Q9Y5S8 whole entry): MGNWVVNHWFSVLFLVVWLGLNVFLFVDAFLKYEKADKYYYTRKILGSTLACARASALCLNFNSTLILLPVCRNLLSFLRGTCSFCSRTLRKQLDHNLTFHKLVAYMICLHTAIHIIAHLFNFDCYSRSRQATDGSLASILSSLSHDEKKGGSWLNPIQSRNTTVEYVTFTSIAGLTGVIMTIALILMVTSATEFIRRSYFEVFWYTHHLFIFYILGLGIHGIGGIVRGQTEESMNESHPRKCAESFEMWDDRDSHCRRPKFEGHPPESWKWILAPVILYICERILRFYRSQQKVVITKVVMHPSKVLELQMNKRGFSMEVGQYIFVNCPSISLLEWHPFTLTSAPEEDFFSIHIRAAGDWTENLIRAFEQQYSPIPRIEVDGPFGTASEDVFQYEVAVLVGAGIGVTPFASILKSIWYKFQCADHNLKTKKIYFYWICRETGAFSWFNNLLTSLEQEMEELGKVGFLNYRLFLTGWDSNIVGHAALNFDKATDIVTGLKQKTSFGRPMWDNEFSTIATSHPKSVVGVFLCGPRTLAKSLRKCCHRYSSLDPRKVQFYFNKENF
Sequence of hNOX1 (P13498 whole entry partner): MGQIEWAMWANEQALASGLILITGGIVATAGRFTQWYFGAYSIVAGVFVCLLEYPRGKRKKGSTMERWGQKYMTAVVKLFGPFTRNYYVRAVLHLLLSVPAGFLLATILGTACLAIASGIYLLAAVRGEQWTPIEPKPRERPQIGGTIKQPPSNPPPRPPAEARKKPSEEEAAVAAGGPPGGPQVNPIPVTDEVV
After resuspension in sonication buffer (11% sucrose, 120 mM NaCl, 1 mM EGTA in PBS, pH 7.4), cells were broken by sonication and centrifuged (200 g, 10 min). The supernatant was layered onto a 17/40% (w/v) discontinuous sucrose gradient and centrifuged (150,000 g for 30 min). Membrane fractions were collected from the 17/40% interface, aliquoted in 10 μl samples and were stored at −80° C. Protein concentration was determined with Bradford reagent. Flavin Adenine Dinucleotide (FAD) (catalog # F6625-500MG), MgCl2 (catalog # M8266-100G), Phosphatidic Acid (PA) (catalog # P3591-50MG) were purchased from Sigma-Aldrich. […] NADPH (catalog #A1395, 0500) was purchased from Applichem. Amplex red (AR) (catalog # A22177) was purchased from Invitrogen. […] FLUOstar OPTIMA microplate reader was supplied by BMG Labtech (Germany). Zephyr® Compact Liquid Handling Workstation was supplied by PerkinElmer (Germany).
Assay 1: ROS Production Measurement on hNOX1 Membranes
All solutions were placed on ice and protected from light.
The NADPH was dissolved in water at a concentration of 12 mM and was transferred in a metal transfer plate kept at 4° C. The NADPH was added to the assay plate to initiate the reaction just before the measurement.
Serial dilution (1:3, 10 serial dilution) of the compounds was performed in 100% DMSO in 96 well polypropylene plate—Row B-H […], Row A, Column 1-10 contained reference compound. Starting concentration was 10^−2 M (10 mM). Final concentration in assay was 10^−4 M (100 μM). Compounds were diluted twice in PBS buffer by transferring 30 μl/well of PBS into 30 μl/well compounds sample in DMSO using Zephyr® Compact Liquid Handling Workstation. Control wells-columns 1 and 12-contained 60 μl DMSO in 50% PBS pH7.
Reaction mixture is dispensed using Zephyr® Compact Liquid Handling Workstation. 90 μl of mix with membrane were dispensed into 96 well black plates—Column 2-11, Column 1 Row A-D, Column 12 Row E-H. 90 μl of control mix were dispensed into assay plate—Column 1 Row E-H, Column 12 Row A-D, which are wells for measuring background signal. 2 μl of compounds were dispensed into each well of assay plate using Zephyr® Compact Liquid Handling Workstation. The reaction mixture with compounds was incubated in assay plates for 20 min at 37° C. in a Titramax microplate incubator with gentle agitation. 10 μl of NADPH is dispensed to the assay plate. Fluorescence reading was recorded with the FLUOstar OPTIMA microplate reader for 10 min at 37° C. (8 cycles, 1 cycle duration 55 sec).
What is called Ki is a measure of affinity in units of concentration, obtained from inhibition or displacement. Take `Cc1nc(O[C@@H](C)c2ccccc2)ccc1C(=O)Nc1nnc(-c2ccncc2)s1` [(43)]: the Ki came to 79 nM.
Turning to `Cc1nc(OCc2ccccc2)ccc1C(=O)Nc1nnc(-c2ccncc2)s1` [(45)], the Ki worked out at 77 nM.
Under `COc1cc(C(=O)Nc2nnc(-c3ccncc3)s2)cnc1O[C@@H](C)c1ccccn1` [(46)] stands 35 nM.
Under `C[C@H](Oc1ncc(C(=O)Nc2nnc(-c3ccncc3)s2)cc1NCCN(C)C)c1ccccc1` [(51)] stands 21 nM; under `C[C@H](Oc1ncc(C(=O)Nc2nnc(-c3ccncc3)s2)cc1NCC1CCOCC1)c1ccccc1` [(52)], 18 nM.
The figure for `C[C@H](Oc1ncc(C(=O)Nc2nnc(-c3ccncc3)s2)cc1NCC1CCN(C)CC1)c1ccccc1` [(53)] is 19 nM; for `C[C@H](Oc1ncc(C(=O)Nc2nnc(-c3ccncc3)s2)cc1NCCCN(C)C)c1ccccc1` [(63)] it is 31 nM; for `C[C@H](Oc1ncc(C(=O)Nc2nnc(-c3ccncc3)s2)cc1NCCO)c1ccccc1` [(65)] it is 51 nM.
For the molecule `C[C@H](Oc1ncc(C(=O)Nc2nnc(-c3ccncc3)s2)cc1NCc1cn(C)cn1)c1ccccc1` [(66)], the Ki stood at 66 nM.
Under `C[C@H](Oc1ncc(C(=O)Nc2nnc(-c3ccncc3)s2)cc1NC1CCN(C)CC1)c1ccccc1` [(67)] stands 75 nM.
With `C[C@H](Oc1ncc(C(=O)Nc2nnc(-c3ccncc3)s2)cc1NCCN1CCOCC1)c1ccccc1` [(68)], the Ki stood at 72 nM.
For `C[C@H](Oc1ncc(C(=O)Nc2nnc(-c3ccncc3)s2)cc1N1CCN(C)CC1)c1ccccc1` [(69)], the Ki was found to be 55 nM.
Under `CNc1cc(C(=O)Nc2nnc(-c3ccncc3)s2)cnc1O[C@@H](CCN(C)C)c1ccccc1` [(75)] stands 90 nM; under `COc1cc(C(=O)Nc2nnc(-c3ccncc3)s2)ccc1O[C@@H]1CCc2ccccc21` [(80)], 27 nM; under `COc1cc(C(=O)Nc2nnc(-c3ccncc3)s2)ccc1OC1CCCc2ccccc21` (centres unmarked) [(82)], 38 nM.
`COc1cc(C(=O)Nc2nnc(-c3ccncc3)s2)ccc1OCc1cscn1` [(83)]: the Ki was 80 nM.
Under `CC(Oc1ccc(C(=O)Nc2nnc(-c3ccncc3)s2)cc1OCCN(C)C)c1ccccc1` (centres unmarked) [(85)] stands 37 nM; under `COCCOc1cc(C(=O)Nc2nnc(-c3ccncc3)s2)ccc1OC(C)c1ccccc1` (centres unmarked) [(86)], 74 nM; under `COc1cc(C(=O)Nc2nnc(-c3ccncc3)s2)ccc1OCc1cccnc1C` [(89)], 91 nM.
As for `COc1cc(C(=O)Nc2nnc(-c3ccncc3)s2)ccc1OCc1ccc(C)cn1` [(90)], the Ki amounted to 100 nM.
The figure for `COc1cc(C(=O)Nc2nnc(-c3ccncc3)s2)ccc1OCc1cc(C)on1` [(91)] is 78 nM.
Under `COc1ccc(COc2ccc(C(=O)Nc3nnc(-c4ccncc4)s3)cc2OC)cc1` [(92)] stands 32 nM; under `COc1cc(C(=O)Nc2nnc(-c3ccncc3)s2)ccc1OCc1ccccc1F` [(93)], 52 nM; under `COc1cc(C(=O)Nc2nnc(-c3ccncc3)s2)ccc1OCc1ccc(F)cc1` [(96)], 14 nM.
Under `COc1cc(C(=O)Nc2nnc(-c3ccncc3)s2)ccc1OCc1cc(C2CC2)on1` [(98)] stands 74 nM.
`COc1cc(C(=O)Nc2nnc(-c3ccncn3)s2)ccc1O[C@@H](C)c1ccccn1` [(102)]: the Ki amounted to 87 nM.
The figure for `COc1cc(C(=O)Nc2nnc(-c3ccncc3F)s2)ccc1O[C@@H](C)c1ccccn1` [(103)] is 13 nM; for `COc1cc(C(=O)Nc2nnc(-c3ccncc3F)s2)ccc1O[C@@H](CO)c1ccccc1` [(105)] it is 19 nM; for `COc1cc(C(=O)Nc2nnc(-c3ccncc3F)s2)ccc1O[C@@H](CN(C)C)c1ccccc1` [(106)] it is 22 nM.
Under `O=C(Nc1nnc(-c2ccncc2)s1)c1cnc(O[C@@H](CO)c2ccccc2)c(Cl)c1` [(108)] stands 92 nM; under `COc1cc(C(=O)Nc2nnc(-c3ccncn3)s2)ccc1OCc1ccccc1` [(111)], 75 nM; under `COc1cc(C(=O)Nc2nnc(-c3ccncn3)s2)cnc1O[C@@H](CN(C)C)c1ccccc1` [(114)], 37 nM.
In the case of `COc1cc(C(=O)Nc2nnc(-c3ccnc(C)c3)s2)ccc1O[C@@H](CN(C)C)c1ccccc1` [(115)], the Ki came to 110 nM.
Under `COc1cc(C(=O)Nc2nnc(-c3ccncc3)s2)ccc1O[C@@H](C)Cc1ccccc1` [(116)] stands 46 nM.
The figure for `COc1cc(C(=O)Nc2nnc(-c3ccncc3)s2)ccc1CN(C)c1ccccn1` [(120)] is 93 nM.
Under `COc1cc(C(=O)Nc2nnc(-c3ccncc3)s2)ccc1Cn1ccc2ccccc21` [(121)] stands 35 nM.
For `CCC(Oc1ccc(C(=O)Nc2nnc(-c3ccncc3)s2)cn1)c1ccccc1` (centres unmarked) [(134)], the Ki was determined as 71 nM.
Under `O=C(Nc1nnc(-c2ccncc2)s1)c1ccc(OC2CCc3ccccc32)nc1` (centres unmarked) [(136)] stands 47 nM.
In the case of `C[C@H](Nc1ccc(C(=O)Nc2nnc(-c3ccncc3)s2)cn1)c1ccccc1` [(149)], the Ki was determined as 78 nM.
On to `COc1cc(C(=O)Nc2nnc(-c3ccncc3)s2)ccc1OC1CCc2ncccc21` (centres unmarked) [(151)], for which the Ki amounted to 15 nM.
The figure for `COc1cc(C(=O)Nc2nnc(-c3ccncc3)s2)ccc1OC1COc2ccccc21` (centres unmarked) [(152)] is 38 nM; for `COc1cc(C(=O)Nc2nnc(-c3ccncc3)s2)ccc1OC(c1ccccc1)C1CC1` (centres unmarked) [(154)] it is 33 nM.
The figure for `COc1cc(C(=O)Nc2nnc(-c3ccncn3)s2)ccc1O[C@@H](C)c1ccccc1` [(157)] is 110 nM.
As to `COc1cc(C(=O)Nc2nnc(-c3ccncc3)s2)ccc1OC1Cc2ccccc2C1` [(158)], the Ki is 22 nM.
Under `COc1cc(C(=O)Nc2nnc(-c3ccncc3)s2)ccc1OCCc1ccccc1` [(161)] stands 79 nM; under `COc1cc(C(=O)Nc2nnc(-c3ccncc3)s2)ccc1OCc1ccn(C)n1` [(162)], 95 nM; under `O=C(Nc1nnc(-c2ccncc2)s1)c1ccc(OCc2ccccc2)cc1F` [(168)], 100 nM.
Take `CN(C)C(=O)[C@H](Cc1ccccc1)Oc1ccc(C(=O)Nc2nnc(-c3ccncc3)s2)cn1` [(174)]: the Ki turned out to be 96 nM.
The figure for `C[C@H](COc1ccc(C(=O)Nc2nnc(-c3ccncc3)s2)cn1)c1ccccc1` [(178)] is 85 nM.
On to `COc1ccc(CCCOc2ccc(C(=O)Nc3nnc(-c4ccncc4)s3)cn2)cc1` [(180)], for which the Ki turned out to be 32 nM.
Under `Cc1cc(C(=O)Nc2nnc(-c3ccncc3)s2)cnc1O[C@@H](CN1CCOCC1)c1ccccc1` [(182)] stands 37 nM.
The figure for `COCC(Oc1ccc(C(=O)Nc2nnc(-c3ccncc3)s2)cc1OC)c1ccccc1` (centres unmarked) [(183)] is 55 nM; for `COc1cc(C(=O)Nc2nnc(-c3ccncc3)s2)ccc1O[C@H](CN1CCOCC1)c1ccccc1` [(185)] it is 89 nM.
The figure for `O=C(Nc1nnc(-c2ccncc2)s1)c1ccc(O[C@@H](CN2CCC(F)(F)C2)c2ccccc2)nc1` [(187)] is 55 nM; for `COc1cc(C(=O)Nc2nnc(-c3ccncc3)s2)ccc1O[C@@H](CO)c1ccc(F)cc1` [(197)] it is 24 nM.
On to `COc1cc(C(=O)Nc2nnc(-c3ccncc3)s2)ccc1O[C@@H](CN(C)C)c1ccc(F)cc1` [(198)], for which the inhibition constant (Ki) turned out to be 25 nM.
Under `COc1cc(C(=O)Nc2nnc(-c3ccncc3)s2)ccc1O[C@H](CO)c1ccc(F)cc1` [(199)] stands 47 nM; under `COc1cc(C(=O)Nc2nnc(-c3ccncc3)s2)ccc1O[C@H](CN(C)C)c1ccc(F)cc1` [(200)], 110 nM; under `CC(Oc1ccc(C(=O)Nc2nnc(-c3ccncc3)s2)cc1OCC1CCNCC1)c1ccccc1` (centres unmarked) [Example 1, 4-(1-phenylethoxy)-3-(piperidin-4-ylmethoxy)-N-(5-(pyridin-4-yl)-1,3,4-thiadiazol-2-yl)benzamide], 18 nM.

The values are drawn from patent US10130619B2, “Amido thiadiazole derivatives as NADPH oxidase inhibitors” (GENKYOTEX SUISSE SA, priority 2014, dated 2018).
